From PubChem BioAssay (NCI)
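Step 1: Grow cells in 96-well plates. Step 2: Expose to compound for 48 hours at 5 concentrations. Step 3: Interpolate endpoints linearly; if unreached, use highest concentration. The concentration for full growth arrest is given as TGI.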

Key:
Assay in all cases: growth of human tumour cells (NCI), 48 h
CAKI-1 renal = tested on: CAKI-1 renal
SW-620 colon = tested on: SW-620 colon
786-0 renal = tested on: 786-0 renal
K-562 leukemia = tested on: K-562 leukemia
MDA-MB-231 breast = tested on: MDA-MB-231 breast
DU-145 prostate = tested on: DU-145 prostate
NCI-H23 lung = tested on: NCI-H23 lung
HT29 colon = tested on: HT29 colon
NCI-H460 lung = tested on: NCI-H460 lung
UACC-62 melanoma = tested on: UACC-62 melanoma
UACC-257 melanoma = tested on: UACC-257 melanoma
OVCAR-4 ovarian = tested on: OVCAR-4 ovarian
SK-OV-3 ovarian = tested on: SK-OV-3 ovarian
A549 NSCLC = tested on: A549 NSCLC
HCC-2998 colon = tested on: HCC-2998 colon
SF-539 CNS = tested on: SF-539 CNS
TK-10 renal = tested on: TK-10 renal
SR leukemia = tested on: SR leukemia
IGROV1 ovarian = tested on: IGROV1 ovarian
SNB-19 CNS = tested on: SNB-19 CNS
OVCAR-8 ovarian = tested on: OVCAR-8 ovarian
NCI-H226 lung = tested on: NCI-H226 lung
RXF 393 renal = tested on: RXF 393 renal
UO-31 renal = tested on: UO-31 renal
U251 CNS = tested on: U251 CNS
NCI-H522 lung = tested on: NCI-H522 lung
EKVX NSCLC = tested on: EKVX NSCLC
MOLT-4 leukemia = tested on: MOLT-4 leukemia
BT-549 breast = tested on: BT-549 breast
MALME-3M melanoma = tested on: MALME-3M melanoma
COLO 205 colon = tested on: COLO 205 colon
ACHN renal = tested on: ACHN renal
LOX IMVI melanoma = tested on: LOX IMVI melanoma
RPMI-8226 leukemia = tested on: RPMI-8226 leukemia
OVCAR-3 ovarian = tested on: OVCAR-3 ovarian
MCF7 breast = tested on: MCF7 breast
SF-295 CNS = tested on: SF-295 CNS
SF-268 CNS = tested on: SF-268 CNS
CCRF-CEM leukemia = tested on: CCRF-CEM leukemia
A498 renal = tested on: A498 renal
PC-3 prostate = tested on: PC-3 prostate
HOP-92 NSCLC = tested on: HOP-92 NSCLC
HOP-62 NSCLC = tested on: HOP-62 NSCLC
HL-60(TB) leukemia = tested on: HL-60(TB) leukemia
KM12 colon = tested on: KM12 colon
MDA-N = tested on: MDA-N
SK-MEL-5 melanoma = tested on: SK-MEL-5 melanoma
MDA-MB-435 = tested on: MDA-MB-435
M14 melanoma = tested on: M14 melanoma
HS 578T breast = tested on: HS 578T breast
OVCAR-5 ovarian = tested on: OVCAR-5 ovarian
NCI/ADR-RES ovarian = tested on: NCI/ADR-RES ovarian
T-47D breast = tested on: T-47D breast
SNB-75 CNS = tested on: SNB-75 CNS
SK-MEL-28 melanoma = tested on: SK-MEL-28 melanoma
SN12C renal = tested on: SN12C renal
HCT-116 colon = tested on: HCT-116 colon
SK-MEL-2 melanoma = tested on: SK-MEL-2 melanoma
HCT-15 colon = tested on: HCT-15 colon

**Q.** Which results are given for `NCC(O)CNC(=O)c1ccc(-c2ccc(-c3ccc(C(=O)NCC(O)CN)cc3)o2)cc1` (configuration not stated)?
**A.** TGI (CAKI-1 renal): > 100 µM; TGI (SW-620 colon): > 100 µM; TGI (786-0 renal): 48.5 µM; TGI (K-562 leukemia): > 100 µM; TGI (MDA-MB-231 breast): 54.2 µM; TGI (DU-145 prostate): 50.6 µM; TGI (NCI-H23 lung): > 100 µM; TGI (HT29 colon): > 100 µM; TGI (NCI-H460 lung): > 100 µM; TGI (UACC-62 melanoma): > 100 µM; TGI (UACC-257 melanoma): > 100 µM; TGI (OVCAR-4 ovarian): > 100 µM; TGI (SK-OV-3 ovarian): 58 µM; TGI (A549 NSCLC): > 100 µM; TGI (HCC-2998 colon): 96.5 µM; TGI (SF-539 CNS): 41.6 µM; TGI (TK-10 renal): 38.9 µM; TGI (SR leukemia): > 100 µM; TGI (IGROV1 ovarian): > 100 µM; TGI (SNB-19 CNS): 46.2 µM; TGI (OVCAR-8 ovarian): > 100 µM; TGI (NCI-H226 lung): 55.4 µM; TGI (RXF 393 renal): 40.1 µM; TGI (UO-31 renal): > 100 µM; TGI (U251 CNS): 42.6 µM; TGI (NCI-H522 lung): > 100 µM; TGI (EKVX NSCLC): 70.3 µM; TGI (MOLT-4 leukemia): > 100 µM; TGI (BT-549 breast): 88.5 µM; TGI (MALME-3M melanoma): 44.2 µM; TGI (COLO 205 colon): > 100 µM; TGI (ACHN renal): > 100 µM; TGI (LOX IMVI melanoma): > 100 µM; TGI (RPMI-8226 leukemia): > 100 µM; TGI (OVCAR-3 ovarian): 46.5 µM; TGI (MCF7 breast): > 100 µM; TGI (SF-295 CNS): 56.6 µM; TGI (SF-268 CNS): 69.3 µM; TGI (CCRF-CEM leukemia): > 100 µM; TGI (A498 renal): 73.5 µM; TGI (PC-3 prostate): 48.3 µM; TGI (HOP-92 NSCLC): 52.1 µM; TGI (HOP-62 NSCLC): 74.4 µM; TGI (HL-60(TB) leukemia): > 100 µM; TGI (KM12 colon): > 100 µM; TGI (MDA-N): > 100 µM; TGI (SK-MEL-5 melanoma): > 100 µM; TGI (MDA-MB-435): > 100 µM; TGI (M14 melanoma): > 100 µM; TGI (HS 578T breast): 59.7 µM; TGI (OVCAR-5 ovarian): > 100 µM; TGI (NCI/ADR-RES ovarian): > 100 µM; TGI (T-47D breast): 92.6 µM; TGI (SNB-75 CNS): 49.5 µM; TGI (SK-MEL-28 melanoma): > 100 µM; TGI (SN12C renal): 68.9 µM; TGI (HCT-116 colon): 52.4 µM; TGI (SK-MEL-2 melanoma): > 100 µM; TGI (HCT-15 colon): > 100 µM

**Q.** How did the TGI (CAKI-1 renal) turn out when `COc1ccc(N=NC(=O)NC(CC(C)C)C(N)=O)cc1` (configuration not stated) was run?
**A.** > 31.6 µM

**Q.** What about the TGI (SW-620 colon) of the same molecule?
**A.** > 100 µM

**Q.** And the TGI (786-0 renal)?
**A.** > 31.6 µM

**Q.** What about the TGI (K-562 leukemia) of the same molecule?
**A.** > 100 µM

**Q.** What about the TGI (MDA-MB-231 breast) of the same molecule?
**A.** > 31.6 µM

**Q.** What about the TGI (DU-145 prostate) of the same molecule?
**A.** > 100 µM

**Q.** What about the TGI (NCI-H23 lung) of the same molecule?
**A.** > 100 µM

**Q.** And the TGI (HT29 colon)?
**A.** > 100 µM

**Q.** And the TGI (NCI-H460 lung)?
**A.** > 31.6 µM

**Q.** And the TGI (UACC-62 melanoma)?
**A.** > 100 µM

**Q.** And the TGI (UACC-257 melanoma)?
**A.** > 31.6 µM

**Q.** What about the TGI (OVCAR-4 ovarian) of the same molecule?
**A.** > 31.6 µM

**Q.** What about the TGI (SK-OV-3 ovarian) of the same molecule?
**A.** > 100 µM

**Q.** What about the TGI (A549 NSCLC) of the same molecule?
**A.** > 31.6 µM

**Q.** And the TGI (HCC-2998 colon)?
**A.** > 31.6 µM

**Q.** And the TGI (SF-539 CNS)?
**A.** > 31.6 µM

**Q.** And the TGI (TK-10 renal)?
**A.** > 31.6 µM

**Q.** And the TGI (SR leukemia)?
**A.** > 100 µM

**Q.** What about the TGI (IGROV1 ovarian) of the same molecule?
**A.** > 100 µM

**Q.** What about the TGI (SNB-19 CNS) of the same molecule?
**A.** > 100 µM

**Q.** What about the TGI (OVCAR-8 ovarian) of the same molecule?
**A.** > 100 µM

**Q.** And the TGI (NCI-H226 lung)?
**A.** > 100 µM

**Q.** What about the TGI (RXF 393 renal) of the same molecule?
**A.** > 31.6 µM

**Q.** What about the TGI (UO-31 renal) of the same molecule?
**A.** > 65.4 µM

**Q.** And the TGI (U251 CNS)?
**A.** > 100 µM

**Q.** What about the TGI (NCI-H522 lung) of the same molecule?
**A.** > 100 µM

**Q.** What about the TGI (EKVX NSCLC) of the same molecule?
**A.** > 100 µM

**Q.** What about the TGI (MOLT-4 leukemia) of the same molecule?
**A.** > 100 µM

**Q.** What about the TGI (BT-549 breast) of the same molecule?
**A.** > 100 µM

**Q.** What about the TGI (MALME-3M melanoma) of the same molecule?
**A.** > 100 µM

**Q.** And the TGI (COLO 205 colon)?
**A.** 24.9 µM

**Q.** What about the TGI (ACHN renal) of the same molecule?
**A.** > 31.6 µM

**Q.** And the TGI (RPMI-8226 leukemia)?
**A.** > 100 µM

**Q.** And the TGI (OVCAR-3 ovarian)?
**A.** > 100 µM

**Q.** What about the TGI (MCF7 breast) of the same molecule?
**A.** > 31.6 µM

**Q.** What about the TGI (SF-295 CNS) of the same molecule?
**A.** > 100 µM

**Q.** And the TGI (SF-268 CNS)?
**A.** > 100 µM

**Q.** What about the TGI (CCRF-CEM leukemia) of the same molecule?
**A.** > 100 µM

**Q.** What about the TGI (A498 renal) of the same molecule?
**A.** > 31.6 µM

**Q.** And the TGI (PC-3 prostate)?
**A.** > 100 µM

**Q.** And the TGI (HOP-92 NSCLC)?
**A.** > 31.6 µM

**Q.** And the TGI (HOP-62 NSCLC)?
**A.** > 100 µM

**Q.** What about the TGI (HL-60(TB) leukemia) of the same molecule?
**A.** > 100 µM

**Q.** And the TGI (KM12 colon)?
**A.** > 100 µM

**Q.** And the TGI (MDA-N)?
**A.** > 31.6 µM

**Q.** And the TGI (SK-MEL-5 melanoma)?
**A.** > 100 µM

**Q.** What about the TGI (MDA-MB-435) of the same molecule?
**A.** > 100 µM

**Q.** And the TGI (M14 melanoma)?
**A.** > 100 µM

**Q.** And the TGI (HS 578T breast)?
**A.** > 100 µM

**Q.** And the TGI (OVCAR-5 ovarian)?
**A.** > 100 µM

**Q.** What about the TGI (NCI/ADR-RES ovarian) of the same molecule?
**A.** > 100 µM

**Q.** What about the TGI (T-47D breast) of the same molecule?
**A.** > 100 µM

**Q.** And the TGI (SNB-75 CNS)?
**A.** > 100 µM

**Q.** What about the TGI (SK-MEL-28 melanoma) of the same molecule?
**A.** > 100 µM

**Q.** And the TGI (SN12C renal)?
**A.** > 31.6 µM

**Q.** And the TGI (HCT-116 colon)?
**A.** > 31.6 µM

**Q.** And the TGI (SK-MEL-2 melanoma)?
**A.** > 100 µM

**Q.** What about the TGI (HCT-15 colon) of the same molecule?
**A.** > 31.6 µM
